Data from paper PMC10407255, “Comparison of activity, structure, and dynamics of SF-1 and LRH-1 complexed with small molecule modulators” (The Journal of Biological Chemistry, 2023).
Like-named read-outs stand apart in the source and are kept apart here. Each block holds one molecule with its values, some of them ahead of it.

What was measured:
[1] = biological target: T1, LRH-1 (Homo sapiens, UniProt O00482); assay: Luciferase reporter assay, LRH-1, HeLa cells; type: cell-based; conditions: for specificity for LRH-1 over SF-1 in reporter assays: 0.1, 1, and 10 μM, LRH-1 vs SF-1 reporter; for LRH-1 activation in luciferase reporter assay: small molecule at 0.1, 1, and 10 μM, relative to DMSO control
T1 construct: expressed in transfected cells; host or cells: HeLa
Method: (§1) Reporter assays were conducted as described previously ([47], [52], [53]). Briefly, HeLa cells were seeded at ∼7500 to 10,000 cells per well in 96-well plates (white-walled, clear bottom) in MEMα + 10% FBS – charcoal/dextran treated. Once cells reached 80 to 90% confluence, they were transfected with LRH-1 (in pCI vector, 5 ng/well) or SF-1 (in pcDNA vector, 5 ng/well), a reporter plasmid with an NR5A response element derived from the SHP promoter cloned upstream of Firefly Luciferase (in pGL3-Basic vector, 50 ng/well), and a plasmid expressing Renilla Luciferase constitutively from a CMV promoter (1 ng/well). Cells were transfected with FuGENE at a ratio of 3:1 (FuGENE:DNA). Twenty-four hours after transfection, compounds were diluted in Opti-MEM and introduced to cells at the final concentrations indicated in figures (final DMSO concentration was 0.37%). Luciferase signal was measured after ∼24 h using the DualGlo kit (Promega) with a BioTek Neo plate reader. Each experiment was conducted with three biological replicates, each with three technical replicates averaged prior to data analysis. Firefly Luciferase signal for each well was divided by the well’s Renilla Luciferase signal intensity and then normalized relative to the DMSO control. Data were analyzed with GraphPad Prism (version 9) using a stimulating dose–response curve (Hill slope = 1).

[2] = biological target: T2, L265M SF-1 mutant (Homo sapiens, UniProt Q13285, L265M); assay: Luciferase reporter assay, L265M SF-1 mutant; type: cell-based; conditions: 0.1, 1, and 10 µM, relative to DMSO control
T2 construct: expressed in transfected cells; host or cells: HeLa
Method: as §1, with “1). […]” for “1).”

[3] = biological target: T3, SF-1 LBD (Homo sapiens, UniProt Q13285); assay: Differential scanning fluorimetry (thermal shift assay); type: binding; conditions: for Tm (melting temperature): SF-1 LBD pre-exchanged with DLPC, incubated with small molecule overnight; for positive shift in melting temperature: relative to the DLPC phospholipid control
T3 construct: transformed with the SF-1 LBD (amino acids 218–461) in the pLIC-His vector; made in house; host or cells: E. coli BL21(DE3)-pLysS
Method: Purified SF-1 LBD, pre-exchanged with DLPC (0.2 mg/ml), was combined with small molecules overnight at 4 °C in assay buffer. SYPRO orange dye was added to the complexes the next day, at a final dilution of 1:1000. Complexes were heated at a rate of 0.5 °C/minute on a StepOne Plus thermocycler, using the ROX filter for fluorescence detection. The melting temperature (Tm, 50% unfolding) was calculated using the Bolzman equation GraphPad Prism (version 9). Assays were conducted with nine technical replicates over three experiments.

[4] = biological target: T4, SF-1 LBD M268L (Homo sapiens, UniProt Q13285, M268L); assay: FP assay (forward binding and competition), SF-1 M268L; conditions: for effect of deep pocket mutation on binding affinity: M268 mutant compared to WT, FP competition
T4 construct: transformed with the SF-1 LBD (amino acids 218–461) in the pLIC-His vector; His (pLIC-His vector); made in house
Method: (§2) FP assays were performed as described previously ([38], [47], [53]). Briefly, experiments were conducted in black, polystyrene, non-binding surface 384-well plates (Corning Inc., Corning, NY) with 30 μl volumes in assay buffer (150 mM NaCl, 20 mM Tris-HCl, 5% glycerol, pH 7.4). […] Polarization was monitored on a Neo plate reader (Biotek, Winooski, VT) at an excitation/emission wavelength of 485/528 nm. Plates were incubated overnight at 4 °C and centrifuged at 2000g for 2 min before polarization measurement. Nine technical replicates were conducted over three experiments and compiled binding data were baseline-corrected to wells with no protein and fit with a one-site binding curve in GraphPad Prism version 7 (GraphPad, Inc, La Jolla, CA). 6N conjugated to fluorescein amidite (FAM) (10 nM/well – 0.8 times the affinity of SF-1 for 6N-FAM) was incubated with SF-1 LBD (25 nM/well – 60% of the forward binding Bmax). Unlabeled compounds were added at concentrations indicated in figures with DMSO in each well held constant at 6.7% v/v. Each experiment was performed two or three times with four technical replicates each. Technical replicates were averaged and normalized independently prior to final data analysis.
(§3) All mutations other than L265M were introduced using the QuikChange II Site-Directed Mutagenesis Kit (Agilent). The Q5 Site-Directed Mutagenesis Kit (New England Biolabs) was used to generate the L265M mutant. All constructs were sequenced prior to use.

[5] = biological target: T3, SF-1 LBD; assay: FP assay (6N-FAM forward binding and competition), wild-type SF-1; conditions: for Ki: FP competition with 10 nM 6N-FAM, 25 nM SF-1 LBD, 95% confidence intervals in brackets, read-out: Ki (inhibition constant)
Method: as §2

[6] = biological target: T5, SF-1 LBD Y436F (Homo sapiens, UniProt Q13285, Y436F); assay: FP assay (forward binding and competition), SF-1 Y436F; conditions: for effect of pocket mouth mutation Y436 on binding affinity: compared to WT, FP competition
T5 construct: transformed with the SF-1 LBD (amino acids 218–461) in the pLIC-His vector; His (pLIC-His vector); made in house
Method: as §2, §3

[7] = biological target: T6, SF-1 (Homo sapiens, UniProt Q13285); assay: Luciferase reporter assay, SF-1, HeLa cells; type: cell-based; conditions: for EC50: HeLa cells, ~24 h; for luciferase signal at highest concentration: cells treated with 3e-5 M, potentially indicating cell toxicity or compound insolubility, data excluded; for maximum activation: normalized relative to DMSO control; for SF-1 activation in luciferase reporter assay: small molecule at 0.1, 1, and 10 μM, relative to DMSO control
T6 construct: expressed in transfected cells; host or cells: HeLa
Method: as §1

[8] = biological target: T7, SF-1 LBD T272V (Homo sapiens, UniProt Q13285, T272V); assay: FP assay (forward binding and competition), SF-1 T272V; conditions: for effect of deep pocket mutation on binding affinity: T272 mutant compared to WT, FP competition
T7 construct: transformed with the SF-1 LBD (amino acids 218–461) in the pLIC-His vector; His (pLIC-His vector); made in house
Method: as §2, §3

[9] = biological target: T8, SF-1 LBD K440A (Homo sapiens, UniProt Q13285, K440A); assay: FP assay (forward binding and competition), SF-1 K440A
T8 construct: transformed with the SF-1 LBD (amino acids 218–461) in the pLIC-His vector; His (pLIC-His vector); made in house
Method: as §2
All mutations other than L265M were introduced using the QuikChange II Site-Directed Mutagenesis Kit (Agilent). […]

[10] = biological target: T9, CysLite SF-1 (steroidogenic factor-1 ligand binding domain, amino acids 218-461, C247S, C412S) (human, UniProt Q13285 218-461, C247S | C412S); assay: crystal structure; cleaved SF-1 CysLite (~5 mg/ml) incubated with 4-fold molar excess of TIF2 peptide at room temperature for 2 h; hanging drop vapor diffusion at 4 °C, Na acetate pH 4.6, glycerol, PEG 4000; crystals soaked 2 days with 6N-10CA; 2.59 Å; conditions: both partners purified
T9 construct: Steroidogenic factor-1 (SF-1); Expressed from the pLic-His vector; His tag cleaved with tobacco etch virus protease; In the crystal the pocket holds 6N-10CA (soaked in) and a bacterial phospholipid modelled as DPPE; also called SF-1 LBD; SF-1 CysLite; source: E. coli BL21(DE3)-pLysS, purified (HisTrap, TEV cleavage, second HisTrap, SEC)

[11] = 95% confidence intervals in brackets, read-out: EC50 (half maximal effective concentration)

T1 sequence (O00482 whole entry): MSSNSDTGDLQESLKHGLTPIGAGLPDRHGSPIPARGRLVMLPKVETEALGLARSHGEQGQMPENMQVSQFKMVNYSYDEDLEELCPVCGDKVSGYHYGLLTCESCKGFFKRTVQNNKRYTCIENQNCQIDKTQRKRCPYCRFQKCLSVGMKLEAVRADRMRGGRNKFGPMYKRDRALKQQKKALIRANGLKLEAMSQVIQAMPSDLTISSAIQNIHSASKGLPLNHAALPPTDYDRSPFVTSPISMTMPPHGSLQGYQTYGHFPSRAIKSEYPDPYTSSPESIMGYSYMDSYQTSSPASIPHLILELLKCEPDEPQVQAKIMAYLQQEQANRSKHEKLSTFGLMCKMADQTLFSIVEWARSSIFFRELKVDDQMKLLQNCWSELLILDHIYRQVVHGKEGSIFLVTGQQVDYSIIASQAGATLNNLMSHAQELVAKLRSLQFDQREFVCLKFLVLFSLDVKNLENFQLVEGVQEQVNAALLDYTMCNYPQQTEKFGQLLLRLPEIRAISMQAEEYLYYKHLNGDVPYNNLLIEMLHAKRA
T5 sequence (Q13285 218-461 Y436F): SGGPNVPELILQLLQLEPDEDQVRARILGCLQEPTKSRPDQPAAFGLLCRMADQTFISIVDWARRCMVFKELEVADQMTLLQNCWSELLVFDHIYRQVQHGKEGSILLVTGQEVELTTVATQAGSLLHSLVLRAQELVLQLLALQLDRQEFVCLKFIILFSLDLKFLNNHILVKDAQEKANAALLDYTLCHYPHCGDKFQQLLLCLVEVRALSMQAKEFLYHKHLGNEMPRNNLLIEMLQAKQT
T4 sequence (Q13285 218-461 M268L): as the sequence (Q13285 218-461 Y436F) above, with M51L, F219Y counted along it
T7 sequence (Q13285 218-461 T272V): as the sequence (Q13285 218-461 Y436F) above, with T55V, F219Y counted along it
T6 sequence (Q13285 whole entry): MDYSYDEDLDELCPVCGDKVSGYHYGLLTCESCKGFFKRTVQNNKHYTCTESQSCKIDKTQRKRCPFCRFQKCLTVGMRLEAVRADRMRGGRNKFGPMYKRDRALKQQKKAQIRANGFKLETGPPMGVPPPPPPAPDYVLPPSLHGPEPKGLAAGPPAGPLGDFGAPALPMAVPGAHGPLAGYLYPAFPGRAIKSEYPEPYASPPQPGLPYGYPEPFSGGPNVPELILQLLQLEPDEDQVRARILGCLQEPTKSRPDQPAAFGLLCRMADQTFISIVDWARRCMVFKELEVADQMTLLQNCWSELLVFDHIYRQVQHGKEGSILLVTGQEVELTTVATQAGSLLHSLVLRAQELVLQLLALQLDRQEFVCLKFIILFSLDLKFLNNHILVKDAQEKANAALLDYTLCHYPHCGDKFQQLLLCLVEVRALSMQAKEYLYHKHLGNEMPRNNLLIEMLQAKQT
T3 sequence (Q13285 218-461): as the sequence (Q13285 218-461 Y436F) above, with F219Y counted along it
T8 sequence (Q13285 218-461 K440A): as the sequence (Q13285 218-461 Y436F) above, with F219Y, K223A counted along it
T2 sequence (Q13285 whole entry L265M): as the sequence (Q13285 whole entry) above, with L265M counted along it
T9 sequence (Q13285 218-461 C247S/C412S): as the sequence (Q13285 218-461 Y436F) above, with C30S, C195S, F219Y counted along it

LRH-1 activation in luciferase reporter assay [1]: improved agonism
activation of L265M SF-1 mutant [2]: failed to activate
Molecule: C=C(c1ccccc1)[C@@]12CC[C@H](NC(C)=O)C1CC(CCCCCCCCCC(=O)O)=C2c1ccccc1 (mixture of isomers) [2N-10CA]
specificity for LRH-1 over SF-1 in reporter assays [1]: specificity for LRH-1 was largely preserved

LRH-1 activation in luciferase reporter assay [1]: improved agonism
Molecule: C=C(c1ccccc1)[C@@]12CC[C@H](NC(N)=O)C1CC(CCCCCCCCCC(=O)O)=C2c1ccccc1 (mixture of isomers) [4N-10CA]
specificity for LRH-1 over SF-1 in reporter assays [1]: specificity for LRH-1 was largely preserved

Tm (melting temperature) [3]: 58.3 °C
positive shift in melting temperature [3]: ~6.5 °C
effect of deep pocket mutation on binding affinity [4]: decreased SF-1 binding affinity
Ki [5]: 60 nM
affinity for SF-1 compared with LRH-1 ([5]; SF-1 Ki (Fig. 3C) vs LRH-1 value of ref 47): over two orders of magnitude lower
improvement in affinity of 6N-10CA over 10CA ([5]; SF-1 binding, FP competition): ~4 fold
increase in affinity of 6N-10CA over 6N ([5]; SF-1 binding, FP competition): ~20 fold
effect of pocket mouth mutation Y436 on binding affinity [6]: minimal impact
EC50 ([7]; read-out: EC50): 100 nM
potency of 6N-10CA relative to 10CA (more potent) ([7]; SF-1 luciferase reporter): 16 fold
potency for SF-1 compared with LRH-1 ([7]; SF-1 vs LRH-1 value of ref 47): nearly two times less
maximum activation [7]: ~1.7
effect of deep pocket mutation on binding affinity [8]: decreased SF-1 binding affinity
Molecule: C=C(c1ccccc1)[C@@]12CC[C@H](NS(N)(=O)=O)[C@@H]1CC(CCCCCCCCCC(=O)O)=C2c1ccccc1 (racemic) [6N-10CA]
luciferase signal at highest concentration [7]: drastic decrease in overall signal
effect of K440A mutation on binding affinity ([9]; compared to WT, FP competition): increased affinity for 6N-10CA was statistically insignificant

Kd ([4]; M268L, 10 nM 6N-FAM, read-out: probe affinity determined with forward binding assays): 19.3 nM
Kd ([5]; WT SF-1 LBD, 10 nM 6N-FAM, read-out: probe affinity determined with forward binding assays): 12 nM
Kd ([6]; Y436F, 10 nM 6N-FAM, read-out: probe affinity determined with forward binding assays): 9.9 nM
Kd ([8]; T272V, 10 nM 6N-FAM, read-out: probe affinity determined with forward binding assays): 10.9 nM
Kd ([9]; K440A, 10 nM 6N-FAM, read-out: probe affinity determined with forward binding assays): 5.5 nM
Molecule: C=C(c1ccccc1)[C@@]12CC[C@H](NS(N)(=O)=O)[C@@H]1CC(CCCCCCCCCC(=O)Nc1ccc3c(c1)C(=O)OC31c3ccc(O)cc3Oc3cc(O)ccc31)=C2c1ccccc1 (racemic) [6N-FAM, reference compound]

Tm (melting temperature) [3]: 58.6 °C
positive shift in melting temperature [3]: ~6.5 °C
Ki [5]: 1400 nM
effect of pocket mouth mutation Y436 on binding affinity [6]: minimal impact
EC50 [7, 11]: 130 nM
maximum activation [7]: ~1.4
Molecule: C=C(c1ccccc1)[C@@]12CC[C@H](NS(N)(=O)=O)[C@@H]1CC(CCCCCC)=C2c1ccccc1 (racemic) [6N]
luciferase signal at highest concentration [7]: drastic decrease in overall signal

Tm (melting temperature) [3]: 54.5 °C
positive shift in melting temperature [3]: ~2 °C
effect of deep pocket mutation on binding affinity [4]: decreased SF-1 binding affinity
Ki [5]: 250 nM
effect of pocket mouth mutation Y436 on binding affinity [6]: decreased 10CA binding affinity
EC50 [7, 11]: 1600 nM
effect of deep pocket mutation on binding affinity [8]: decreased SF-1 binding affinity
Molecule: C=C(c1ccccc1)[C@@]12CC[C@@H](O)[C@@H]1CC(CCCCCCCCCC(=O)O)=C2c1ccccc1 (racemic) [10CA]

SF-1 activation in luciferase reporter assay [7]: without activating SF-1
LRH-1 activation in luciferase reporter assay [1]: activated LRH-1
Molecule: C=C(c1ccccc1)C12CCC(NC(C)=O)C1CC(CCCCCC)=C2c1ccccc1 (stereo not shown) [2N]

SF-1 activation in luciferase reporter assay [7]: reduced SF-1 activity
Molecule: C=C(c1ccccc1)C12CCC(OC(N)=O)C1CC(CCCCCC)=C2c1ccccc1 (stereo not shown) [3N]

SF-1 activation in luciferase reporter assay [7]: without activating SF-1
LRH-1 activation in luciferase reporter assay [1]: activated LRH-1
Molecule: C=C(c1ccccc1)C12CCC(NC(N)=O)C1CC(CCCCCC)=C2c1ccccc1 (stereo not shown) [4N]

Molecule: CCCCCCCCCCCC(=O)OC[C@H](COP(=O)([O-])OCC[N+](C)(C)C)OC(=O)CCCCCCCCCCC [DLPC, 1,2-dilauroyl-sn-glycero-3-phosphocholine, reference compound]
Tm (melting temperature) [3]: 52.2 °C

binding result [10]: binds
B1: TIF2 peptide (fragment of the coactivator transcriptional intermediate factor 2) (peptide)
peptide: KENALLRYLLDKDD
